Source: patent publication US8715537B2, “Molecular precursor methods and materials for optoelectronics” (Precursor Energetics, Inc., priority 2009, dated 2014)

Key:
[1] = Thermogravimetric analysis (TGA): transition of molecular precursor into material; format: physicochemical; details: for TGA transition ending (completed) temperature / TGA transition midpoint: transition of precursor into material; for TGA yield at 400° C.: at about 400° C.; for TGA yield for the transition: residue at end of transition
Description: Thermogravimetric analysis (TGA) was performed using a Q50 Thermogravimetric Analyzer (TA Instruments, New Castle, Del.). NMR data were recorded using a Varian 400 MHz spectrometer.

[2] = Solubility of molecular precursor in organic solvents; format: physicochemical; details: for Solubility: benzene: solvent benzene; for Solubility: benzene / Solubility: toluene: 'heat'; for Solubility: diethyl ether: solvent diethyl ether; for Solubility: pentane: solvent pentane; for Solubility: CHCl3: solvent CHCl3; for Solubility: THF: solvent THF; for Solubility: toluene: solvent toluene

Substance	TGA transition ending (completed) temperature [1]	TGA yield at 400° C. [1]	TGA yield for the transition [1]	TGA transition midpoint [1] [°C]	Solubility: benzene [2]	Solubility: diethyl ether [2]	Solubility: pentane [2]	Solubility: CHCl3 [2]	Solubility: THF [2]	Solubility: toluene [2]
Ag—(Se^tBu)3Ga^nBu [Example 25]	about 210 °C	47.7 % (w/w)	53.9 % (w/w)	–	–	–	–	–	–	–
Ag—(Se^tBu)3Ga^sBu [Example 27]	about 195 °C	45.1 % (w/w)	50.4 % (w/w)	–	–	–	–	–	–	–
Ag—(Se^tBu)3In^iPr [Example 28]	about 205 °C	–	56.2 % (w/w)	–	–	–	–	–	–	–
Ag—(Se^tBu)3In^nBu [Example 24]	about 205 °C	52.5 % (w/w)	54.6 % (w/w)	–	–	–	–	–	–	–
Ag—(Se^tBu)3In^sBu [Example 26]	about 195 °C	–	54.9 % (w/w)	–	–	–	–	–	–	–
Cu—(S^tBu)2(S^tBu)In^tBu [Example 9]	295 °C	–	47.9 % (w/w)	235	–	–	–	–	–	–
Cu—(S^tBu)3Ga^iPr [Example 12]	220 °C	–	46.0 % (w/w)	–	–	–	–	–	–	–
Cu—(S^tBu)3In^iPr [Example 1]	227 °C	–	50.4 % (w/w)	220	s heat	ss	nil	–	–	–
Cu—(S^tBu)3In^nBu [Example 2]	248 °C	–	50.4 % (w/w)	235	vs	vs	–	vs	vs	vs
Cu—(S^tBu)3In^tBu [Example 4]	about 240 °C	–	48.1 % (w/w)	–	ss heat	nil	nil	–	ss	s heat
Cu—(Se^tBu)3Ga^tBu [Example 5]	about 210 °C	–	48.3 % (w/w)	–	ss heat	nil	nil	–	–	s heat
Cu—(Se^tBu)3In^iPr [Example 8]	199 °C	–	52.1 % (w/w)	192	heat	ss	nil	–	–	–
Cu—(Se^tBu)3In^nBu [Example 3]	196 °C	–	48.5 % (w/w)	174	vs	vs	–	vs	vs	vs
Cu—(Se^tBu)3In^sBu [Example 14]	204 °C	–	52.3 % (w/w)	191	–	–	–	–	–	–
Cu—(Se^tBu)3In^tBu [Example 7]	about 192 °C	–	53.1 % (w/w)	–	ss heat	nil	nil	–	ss	heat
